From PubChem BioAssay (NCI) come the findings set out here.

Each structure is given as a SMILES string.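 Five compound concentrations were applied to cells in 96-well plates for 48 hours; endpoints were derived by simple linear interpolation of the resulting dose-response curve. Here, GI50 denotes the concentration required for 50% inhibition of growth. TGI: total growth inhibition.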 Some results are limits rather than exact numbers.

Among the test systems are DMS 273 small cell lung; KM20L2 colon; XF 498 CNS; M19-MEL melanoma; LXFL 529 NSCLC; RXF-631 renal; DLD-1 colon; DMS 114 small cell lung; MDA-N.
What all share (experiment): NCI tumour cell line growth inhibition, 48 h

Consider `C=CCNC(=O)N(CCCCC(NC(C)=O)C(=O)NCc1ccccc1)Cc1ccccc1` (centres undefined), for which the TGI with DMS 273 small cell lung, with KM20L2 colon, with XF 498 CNS, in the experiment on M19-MEL melanoma, in the experiment with LXFL 529 NSCLC and in the experiment with RXF-631 renal was > 100 µM throughout.
As for `COc1ccc(C23C(=O)c4ccccc4N2O[C@H]2C(=O)N(c4ccccc4)C(=O)[C@H]23)cc1` (some centres undefined), the TGI in the experiment with DMS 273 small cell lung, in the experiment on KM20L2 colon, in the experiment on XF 498 CNS, in the experiment on DLD-1 colon, in the experiment with DMS 114 small cell lung and with M19-MEL melanoma was > 100 µM throughout. Besides, the TGI in the experiment with LXFL 529 NSCLC and in the experiment with RXF-631 renal was > 100 µM in each case.
As for `CN(Cc1ccccc1)C(=NC#N)N(Cc1ccccc1)Cc1ccccc1`, the TGI was 41.8 µM with DMS 273 small cell lung; 56.2 µM in the experiment on KM20L2 colon; 39.6 µM with MDA-N; > 100 µM in the experiment on DLD-1 colon; 54.4 µM in the experiment on M19-MEL melanoma; 70.2 µM in the experiment with LXFL 529 NSCLC.
For the compound `CCCCCCCCCCCc1nnc(N)o1`, the TGI with DMS 273 small cell lung, in the experiment on KM20L2 colon, in the experiment with XF 498 CNS, in the experiment with DLD-1 colon, in the experiment on M19-MEL melanoma and in the experiment with LXFL 529 NSCLC was > 100 µM in each case. Also, the TGI in the experiment on RXF-631 renal is > 100 µM.
Consider `N.N.N.N.[Co+3].[N-]=[N+]=[N-].[N-]=[N+]=[N-].[N-]=[N+]=[N-]`, for which the GI50 in the experiment on DMS 273 small cell lung, with KM20L2 colon, in the experiment on DLD-1 colon and with LXFL 529 NSCLC was > 100 µM in each case. In addition, the TGI in the experiment on DMS 273 small cell lung, in the experiment with KM20L2 colon, in the experiment on DLD-1 colon and with LXFL 529 NSCLC was > 100 µM throughout.
Regarding `C=C(C)[C@@H]1CC[C@]2(C)CC[C@]3(C)[C@H](CC[C@@H]4[C@@]5(C)CC[C@H](O)C(C)(C)[C@@H]5CC[C@]43C)[C@@H]12`, the TGI in the experiment with DMS 273 small cell lung, in the experiment on KM20L2 colon, in the experiment with MDA-N, in the experiment on XF 498 CNS, in the experiment on DLD-1 colon and in the experiment on DMS 114 small cell lung was > 100 µM throughout. Also, the TGI with M19-MEL melanoma and in the experiment on LXFL 529 NSCLC was > 100 µM throughout.
With `COC(=O)C1CC23CCCN4CCC5(c6ccccc6N(C=O)C15CC2)C43` (centres undefined), in the experiment on MDA-N, the TGI was > 100 µM.
Consider `CC(C)=CC1C[C@H](C2CC=C3C2(C)CCC2[C@@]3(C)C(=O)CC3[C@]2(C)C=CC(=O)[C@]3(C)CO)CO1` (some centres undefined), for which the TGI was 18.4 µM with DMS 273 small cell lung; 19.1 µM with KM20L2 colon; 12.9 µM with XF 498 CNS; 15.9 µM in the experiment with DMS 114 small cell lung; 16.7 µM with M19-MEL melanoma; 12.1 µM in the experiment with LXFL 529 NSCLC.
Regarding `COC(=O)CC1C[C@H](C#N)N(C(=O)c2ccccc2)C[C@@H]1CC[N+](=O)[O-]` (some centres undefined), the TGI in the experiment on DMS 273 small cell lung, in the experiment on KM20L2 colon, with XF 498 CNS, with DLD-1 colon, in the experiment on M19-MEL melanoma and with LXFL 529 NSCLC was > 100 µM in each case.
Regarding `CNC(=O)Nc1nc2ccc([N+](=O)[O-])cc2[nH]1`, the TGI with MDA-N is > 100 µM.
For `CCOc1cccc(/C=N/N=C2\C(=O)Nc3c(Cl)cc(Cl)cc32)c1O`, the TGI with MDA-N is > 100 µM.
With `COc1ccc(/C=N/N=C(\N)NO)cc1O`, the TGI in the experiment with DLD-1 colon, in the experiment on DMS 114 small cell lung and with LXFL 529 NSCLC was > 100 µM throughout.
Turning to `O=C(O)CCN(CCCCN(CCC(=O)O)CCC(=O)O)CCC(=O)O`, the TGI in the experiment on DMS 273 small cell lung, with XF 498 CNS, with DLD-1 colon, in the experiment on DMS 114 small cell lung, with M19-MEL melanoma and in the experiment on LXFL 529 NSCLC was > 100 µM in each case.
For the compound `N.N.N.N.N.NC(=O)c1nn[n-]n1.[Cl-].[Co+3]`, the GI50 with DMS 273 small cell lung, in the experiment with KM20L2 colon, in the experiment on DLD-1 colon and with LXFL 529 NSCLC was > 100 µM in each case. The TGI in the experiment with DMS 273 small cell lung, in the experiment on KM20L2 colon, in the experiment with DLD-1 colon and in the experiment on LXFL 529 NSCLC was > 100 µM throughout.
Take `COC(=O)NC(=O)c1cn(C2OC(CO)C(O)C2O)c(=O)[nH]c1=O` (centres undefined): the TGI in the experiment on KM20L2 colon, in the experiment on DLD-1 colon, in the experiment on M19-MEL melanoma and with LXFL 529 NSCLC was > 100 µM throughout.
`Cc1c[n+](=O)c2ccccc2n1[O-]`: the TGI in the experiment with MDA-N was > 100 µM.
Regarding `CN(/N=C/c1cccc2cccnc12)c1ccc([N+](=O)[O-])cc1[N+](=O)[O-]`, the TGI in the experiment on DMS 273 small cell lung is > 55.7 µM; in the experiment with KM20L2 colon it was > 100 µM; in the experiment on MDA-N it was > 100 µM; in the experiment on XF 498 CNS, 19.2 µM; in the experiment on DLD-1 colon it was > 100 µM; in the experiment on DMS 114 small cell lung, > 61.9 µM. For the same compound, the TGI with M19-MEL melanoma, with LXFL 529 NSCLC and in the experiment on RXF-631 renal was > 100 µM each time.
`C=C(C)C(O)CCC1(C)C=Cc2c(c(C)cc3c2[nH]c2ccccc23)O1` (centres undefined): the TGI is 7.57 µM in the experiment on KM20L2 colon; 17.3 µM in the experiment on MDA-N; 25 µM in the experiment with XF 498 CNS; 18.8 µM with DLD-1 colon; 25 µM in the experiment on DMS 114 small cell lung; 25 µM with M19-MEL melanoma. Also, the TGI with LXFL 529 NSCLC is 25 µM.
With `Cc1cc(CC(=O)NCCO)n(CCO)c(=O)c1`, the TGI in the experiment on DMS 273 small cell lung, in the experiment with XF 498 CNS, with DLD-1 colon, in the experiment with DMS 114 small cell lung, with M19-MEL melanoma and in the experiment on LXFL 529 NSCLC was > 100 µM each time. The TGI in the experiment on RXF-631 renal is > 100 µM.
`O=C(Nc1ccc([As](=O)(O)O)cc1)Nc1cccc(Cl)c1Cl`: the TGI in the experiment on MDA-N is > 100 µM.
`NC(=O)C(=O)N/N=C1\C(=O)N(c2ccc(Cl)cc2Cl)C(=O)C1C(=O)Nc1ccc(Cl)cc1Cl` (centres undefined): the TGI in the experiment with DMS 273 small cell lung, with KM20L2 colon, in the experiment on XF 498 CNS, with DLD-1 colon, with DMS 114 small cell lung and with M19-MEL melanoma was > 100 µM in each case. For the same compound, the TGI with LXFL 529 NSCLC is > 100 µM.
In the case of `O=C(O)CN(CC(=O)O)Cc1cc(C#Cc2ccc(C#Cc3ccccc3)cc2)cc(CN(CC(=O)O)CC(=O)O)n1`, the TGI in the experiment on DMS 273 small cell lung is 23.5 µM; in the experiment on KM20L2 colon it was > 76.3 µM; with MDA-N it was > 100 µM; with XF 498 CNS it was > 100 µM; with DLD-1 colon, > 68.1 µM; in the experiment on DMS 114 small cell lung it was 47 µM. In addition, the TGI is 39.9 µM in the experiment with M19-MEL melanoma and > 76.4 µM in the experiment with LXFL 529 NSCLC.
